Results from patent US20060287319A1, “Anti-viral compositions comprising heterocyclic substituted phenyl furans and related compounds” (priority 2005, published 2006).
Read-outs that look alike come from different tables or passages of the source.

Experiments:
HIV-1 IIIB [1] = conditions: for EC50: read-out: EC50 (μM) (M ± SD) for inhibition of p24, MT-2 cells; for SI (CC50/EC50): selectivity index
Method: Assessment of anti-HIV-1 infectivity. The inhibitory activity of compounds on infection by laboratory-adapted HIV-1 strains was determined as previously described (34). […] For the time-of-addition assay, compounds were added at various time post-infection. Then the culture supernatants were removed and fresh media were added. On the fourth day post-infection, 100 μl of culture supernatants were collected from each well, mixed with equal volumes of 5% Triton X-100 and assayed for p24 antigen, which was quantitated by ELISA (23). Briefly, the wells of polystyrene plates (Immulon 1B, Dynex Technology, Chantilly, Va.) were coated with HIV immunoglobulin (HIVIG), which was prepared from plasma of HIV-seropositive donors with high neutralizing titers against HIV-1IIIB as previously described (36) in 0.085 M carbonate-bicarbonate buffer (pH 9.6) at 4° C. overnight, followed by washes with PBS-T buffer (0.01M PBS containing 0.05% Tween-20) and blocking with PBS containing 1% dry fat-free milk (Bio-Rad Inc., Hercules, Calif.). Virus lysates were added to the wells and incubated at 37° C. for 1 h. […] Reactions were terminated by addition of 1N H2SO4. […] Recombinant protein p24 (US Biological, Swampscott, Mass.) was included for establishing standard dose response curve.

[2] = test system: HIV-1IIIB infected H9 cells (H9/HIV-1IIIB) and MT-2 cells; assay: HIV-1 mediated cell-cell fusion (dye transfer assay); format: cell-based; conditions: for EC50: H9/HIV-1IIIB with MT-2 cells, read-out: EC50 (μM) (M ± SD) for inhibition of Cell fusion; for inhibition of fusion of HIV-1IIIB infected H9 cells with uninfected MT-2 cells: dose dependent, FIG. 2
Method: Inhibition of cell-cell fusion. A dye transfer assay was used for detection of HIV-1 mediated cell fusion as previously described (11,25,26). H9/HIV-1IIIB cells were labeled with a fluorescent reagent, Calcein-AM (Molecular Probes, Inc., Eugene, Oreg.) and then incubated with MT-2 cells (ratio=1:5) in 96-well plates at 37° C. for 2 hrs in the presence or absence of compounds tested. The fused and unfused Cacein-labeled HIV-1-infected cells were counted under an inverted fluorescence microscope (Zeiss, Germany) with an eyepiece micrometer disc. The percentage of inhibition of cell fusion and the IC50 values were calculated as previously described (11).

[3] = target: gp41 six-helix bundle formation between N36 and C34 (Human immunodeficiency virus type 1 group M subtype B, UniProt P04578); conditions: read-out: IC50 for inhibition of six-helix bundle formation between N36 and C34; sandwich ELISA, FIG. 3
Method: ELISA for screening for compounds that inhibit the gp41 six-helix bundle formation. A sandwich ELISA as previously described (27) was used to screen for compounds that inhibit the gp41 six-helix bundle formation. Briefly, peptide N36 (2 μM) was pre-incubated with a test compound at the indicated concentrations at 37° C. for 30 min, followed by addition of C34 (2 μM). In the control experiments, N36 was pre-incubated with C34 at 37° C. for 30 min, followed by addition of the test compound. After incubation at 37° C. for 30 min, the mixture was added to wells of a 96-well polystyrene plate (Costar, Corning Inc., Corning, N.Y.) which were precoated with IgG (2 μg/ml) purified from rabbit antisera directed against the N36/C34 mixture. […] Absorbance at 450 nm was measured using an ELISA reader (Ultra 384, Tecan, Research Triangle Park, N.C.). […] Chou (Sloan-Kettering Cancer Center, New York, N.Y.).
A model system of the gp41 six-helix bundle was established by mixing the N— and C-peptides at equal molar concentrations (16).

HIV-1 MN = conditions: read-out: IC50 (μM) (Mean ± SD); HIV-1 strain MN
Method: (§1) Assessment of anti-HIV-1 infectivity. The inhibitory activity of compounds on infection by laboratory-adapted HIV-1 strains was determined as previously described (34). In brief, 1×10^4 MT-2 cells were infected with HIV-1 at 100 TCID50 (50% tissue culture infective dose) in 200 μl of RPMI 1640 medium containing 10% FBS in the presence or absence of compounds at graded concentrations overnight. For the time-of-addition assay, compounds were added at various time post-infection. Then the culture supernatants were removed and fresh media were added. On the fourth day post-infection, 100 μl of culture supernatants were collected from each well, mixed with equal volumes of 5% Triton X-100 and assayed for p24 antigen, which was quantitated by ELISA (23). Briefly, the wells of polystyrene plates (Immulon 1B, Dynex Technology, Chantilly, Va.) were coated with HIV immunoglobulin (HIVIG), which was prepared from plasma of HIV-seropositive donors with high neutralizing titers against HIV-1IIIB as previously described (36) in 0.085 M carbonate-bicarbonate buffer (pH 9.6) at 4° C. overnight, followed by washes with PBS-T buffer (0.01M PBS containing 0.05% Tween-20) and blocking with PBS containing 1% dry fat-free milk (Bio-Rad Inc., Hercules, Calif.). Virus lysates were added to the wells and incubated at 37° C. for 1 h. […] Reactions were terminated by addition of 1N H2SO4. Absorbance at 450 nm was recorded in an ELISA reader (Ultra 384, Tecan). Recombinant protein p24 (US Biological, Swampscott, Mass.) was included for establishing standard dose response curve.

HIV-1 SF2 = conditions: read-out: IC50 (μM) (Mean ± SD); HIV-1 strain SF2
Method: as §1

HIV-1 RF = conditions: read-out: IC50 (μM) (Mean ± SD); HIV-1 strain RF
Method: as §1

[4] = test system: HIV-1 AZT-R, a strain resistant to AZT; conditions: read-out: IC50 (μM) (Mean ± SD); HIV-1 strain AZT-R
Method: as §1

[5] = test system: laboratory-adapted HIV-1 strains, including RF, SF2, MN, and AZT-R; conditions: dose-dependent
Method: as §1

HIV-1 IIIB [6] = assay: HIV-1-mediated cytopathic effect (CPE); format: cell-based; conditions: read-out: EC50 (μM) (M ± SD) for inhibition of CPE
Source text: We thus purchased these compounds and tested their inhibitory activity on: 1) HIV-1 replication (p24 production); 2) HIV-1-mediated cytopathic effect (CPE); and 3) HIV-1 Env-induced cell-cell fusion; and their cytotoxicity to MT-2 cells.

[7] = read-out: IC50 (μM) (Mean ± SD), HIV-1 strain IIIB

Chain of gp41 six-helix bundle formation between N36 and C34 (P04578 546-581): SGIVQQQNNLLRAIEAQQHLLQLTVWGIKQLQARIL

Row | SMILES | EC50 (HIV-1 IIIB [1]; HIV-1 IIIB) [µM] | IC50 (HIV-1 IIIB [1]; read-out: IC50 inhibiting HIV-1 replication, HIV-1 IIIB) [µM] | SI (CC50/EC50) (HIV-1 IIIB [1]) | IC50 [2] [nM] | EC50 [2] [µM] | inhibition of fusion of HIV-1IIIB infected H9 cells with uninfected MT-2 cells [2] | IC50 [3] [nM] | IC50 (HIV-1 MN) [µM] | IC50 (HIV-1 SF2) [µM] | IC50 (HIV-1 RF) [µM] | IC50 [4] [µM] | IC50 values, infection by other laboratory-adapted HIV-1 strains [5] | EC50 (HIV-1 IIIB [6]) [µM] | IC50 (HIV-1 IIIB [1]; [7]) [µM]
1 | O=C(O)c1cc(-c2ccc(/C=C3\SC(=S)N(CCc4ccccc4)C3=O)o2)ccc1Cl [NB206] | 0.019 ± 0.002 | 0.019 | 981.11 | < 667 | 0.459 ± 0.05 | inhibited fusion | 830 ± 30 | 0.174 ± 0.027 | 0.261 ± 0.062 | 0.034 ± 0.014 | 0.046 ± 0.004 | nanomolar range | 0.092 ± 0.002 | 
2 | O=C(O)c1cccc(-c2ccc(/C=C3\SC(=S)N(c4ccc(Cl)cc4Cl)C3=O)o2)c1 [NB231] | 0.189 ± 0.042 |  | 656.56 |  | 0.982 ± 0.054 | inhibited fusion | 930 ± 330 | 1.69 ± 0.044 | 4.68 ± 0.559 | 0.152 ± 0.029 | 0.823 ± 0.053 | nanomolar range | 0.525 ± 0.126 | 0.189 ± 0.042
3 | CCN1C(=O)/C(=C/c2ccc(-c3cccc(C(=O)O)c3)o2)SC1=S [NB179] | 0.501 ± 0.039 |  | >1230.77 |  | 3.66 ± 0.154 | inhibited fusion | 2510 ± 270 | 2.93 ± 0.362 | 11.9 ± 1.7 | 4.2 ± 0.256 | 4.39 ± 0.471 | nanomolar range | 0.924 ± 0.077 | 0.501 ± 0.039
